Laboratory results from patent publication US20160158179A1, “NANOEMULSION THERAPEUTIC COMPOSITIONS AND METHODS OF USING THE SAME” (THE REGENTS OF THE UNIVERSITY OF MICHIGAN, priority 2008, published 2016).
Values after ≈ are worked out from the molar mass of the structure shown.

Assays:
Pseudomonas aeruginosa [1] = assay: MIC determination, CLSI microdilution with alamar blue; assay type: cell-based; conditions: Pseudomonas aeruginosa (n = 5); nanoemulsions in the presence of 5 mM EDTA; in µg/mL
Myeloperoxidase = assay: Detection of neutrophil sequestration (myeloperoxidase assay); assay type: in vivo, Sprague-Dawley rats; conditions: infected burn wound, 32 hours post-injury
Protocol: The occlusive dressing and TELFA was removed.
100 mg of skin tissue was mechanically homogenized in 1 mL ice cold potassium phosphate buffer consisting of 115 mM monobasic potassium phosphate (Sigma Aldrich, Milwaukee, Wis.). Homogenates were centrifuged at 3000 g for 10 min at 4° C., the supernatants were removed and the pellets were re-suspended in 1 mL C-TAB buffer consisting of dibasic potassium phosphate, cetyltrimethylammonium bromide, and acetic acid (Sigma Aldrich, Milwaukee, Wis.). The suspensions were sonicated (Branson Sonifier 250, Danbury, Conn.) on ice for 40 seconds. Homogenates were centrifuged at 3000 g for 10 min at 4° C. and the supernatant collected. Supernatants were incubated in 60° C. water bath for 2 hours (Shaker Bath, 2568; Forma Scientific, Marietta, Ohio). Samples were stored at −80° C. until needed or assayed immediately.

[2] = tested on: IL1-β, IL-6, TNF-α, CINC-1, CINC-3, IL-10 and TGF-β; assay: Dermal cytokine analysis (ELISA) of burn wound skin; assay type: in vivo, Sprague-Dawley rats
Protocol: After drying, an occlusive dressing of sterile […] […] Stock nanoemulsion […] […] The occlusive dressing and TELFA was removed. […] Homogenates were centrifuged at 3000 g for 5 minutes and the supernatants collected and stored frozen at -80° C. until use. Rat IL1-β, IL-6, […]-10 and TGF-β were measured by sandwich enzyme-linked immunosorbent assay (ELISA) using antibodies and reagents from R&D Systems, Inc. (Minneapolis, Minn.). The assay was carried out in 96-well microplates (Immunoplate Maxisorb, Nunc, Neptune, N.J.) according to the kit instructions and samples were read using a microplate reader (Biotek Instruments, Winooski, Vt.) at 450 nm with a wavelength correction of 540 nm. Cytokine concentrations were determined using the plate reader software and a 7-point standard curve. Results were adjusted for previous dilution and expressed as pg/mL.

Pseudomonas aeruginosa [3] = assay: MIC and MBC determination (CLSI, alamar blue), CF isolates
Acinetobacter baumannii [4] = assay: MIC and MBC determination (CLSI, alamar blue)
[5] = tested on: Stenotrophomonas maltophilia; assay: MIC and MBC determination (CLSI, alamar blue), CF isolates
[6] = tested on: H. influenzae clinical isolates; conditions: ATCC H. influenzae 49247 quality control isolate; acceptable QC range; cited from earlier work
[7] = tested on: H. influenzae clinical isolates; assay: MIC and MBC susceptibility assays (CLSI); assay type: cell-based, Haemophilus influenzae
Burkholderia cenocepacia = assay: MIC and MBC determination (CLSI, alamar blue), CF isolates
[8] = tested on: Pseudomonas, Burkholderia, Acinetobacter and Stenotrophomonas; assay: MIC and MBC determination (CLSI, alamar blue), all strains of Example 8
Burkholderia strains = assay: Checkerboard synergy study (FIC/FBC index); assay type: cell-based, Burkholderia cenocepacia; conditions: in combination with P4075EC+EDTA
Stenotrophomonas strains = assay: Checkerboard synergy study (FIC/FBC index); assay type: cell-based, Stenotrophomonas maltophilia; conditions: in combination with P4075EC+EDTA
Acinetobacter baumannii [9] = assay: MIC determination, CLSI microdilution with alamar blue; assay type: cell-based
Acinetobacter strains = assay: Checkerboard synergy study (FIC/FBC index); assay type: cell-based, Acinetobacter baumannii; conditions: in combination with P4075EC+EDTA
[10] = tested on: Stenotrophomonas maltophilia; assay: MIC determination, CLSI microdilution with alamar blue; assay type: cell-based
[11] = share of 10 Burkholderia strains with synergy
[12] = share of 10 Stenotrophomonas strains with synergy
[13] = share of 10 Acinetobacter strains with synergy

## Gentamicin
Pseudomonas aeruginosa [1]
  MIC Range: <=2-4

## NCc1ccc(S(N)(=O)=O)cc1 [Sulfamylon, mafenide acetate]
Myeloperoxidase
  myeloperoxidase: 0.08 ± 0.02 µg/mL
[2]; 32 hours
  level of IL-10 or TGF-β in the infected burn wound: did not suppress
[2]; infected burn wound
  dermal levels of proinflammatory cytokines IL-6, TNF-α, CINC-1 or CINC-3 compared to controls: did not result in any significant alteration

## CO/N=C(\C(=O)N[C@@H]1C(=O)N2C(C(=O)[O-])=C(C[N+]3(C)CCCC3)CS[C@H]12)c1csc(N)n1 [Cefepime]
Pseudomonas aeruginosa [3]; Pseudomonas
  MIC 50: 2 µg/mL (≈ 4.16 µM)
  MIC 90: 32 µg/mL (≈ 66.6 µM)
Acinetobacter baumannii [4]; Acinetobacter
  MIC 50: 32 µg/mL (≈ 66.6 µM)
  MIC 90: >32 µg/mL
Acinetobacter baumannii [4]; Acinetobacter baumannii
  MIC 50: 32 µg/mL (≈ 66.6 µM)
  MIC 90: > 32 µg/mL
[5]; Stenotrophomonas
  MIC 50: >32 µg/mL
  MIC 90: >32 µg/mL
[5]; Stenotrophomonas maltophilia
  MIC 90: > 32 µg/mL
[6]
  QC MIC range: C (QC MIC range is 0.5-2) μg/ml
[7]
  susceptibility of the majority of isolates by MIC90 values: susceptible
[7]; Haemophilus influenzae, all H. influenzae strains of Table 6, control antibiotics
  MIC 50: 0.125 µg/mL (≈ 0.26 µM)
Burkholderia cenocepacia; Burkholderia
  MIC 90: >32 µg/mL
Burkholderia cenocepacia; Burkholderia cenocepacia
  MIC 50: 32 µg/mL (≈ 66.6 µM)
  MIC 90: > 32 µg/mL
[8]
  MIC 90: ≥ 2 µg/mL
[8]; read-out: MBC90
  MBC: > 32 µg/mL

## Colistin
Pseudomonas aeruginosa [1]
  MIC Range: <=0.5-2
Burkholderia strains; Burkholderia
  Overall synergy result: No Interference
Burkholderia strains; isolate NB21
  Synergy (FBC): indifferent
  Synergy (FIC): indifferent
Burkholderia strains; isolate NB22
  Synergy (FBC): indifferent
  Synergy (FIC): indifferent
Burkholderia strains; isolate NB23
  FBC: 2.00
  Synergy (FBC): indifferent
  Synergy (FIC): indifferent
Burkholderia strains; isolate NB24
  FBC: 2.00
  Synergy (FBC): indifferent
  Synergy (FIC): indifferent
Burkholderia strains; isolate NB25
  FBC: 3.00
  FIC: 2.00
  Synergy (FBC): indifferent
  Synergy (FIC): indifferent
Burkholderia strains; isolate NB26
  FBC: 0.04
  FIC: 0.56
  Synergy (FBC): yes
  Synergy (FIC): yes
Burkholderia strains; isolate NB27
  Synergy (FBC): indifferent
  Synergy (FIC): indifferent
Burkholderia strains; isolate NB28b
  FIC: 0.29
  Synergy (FBC): indifferent
  Synergy (FIC): yes
Burkholderia strains; isolate NB29
  Synergy (FBC): indifferent
  Synergy (FIC): indifferent
Burkholderia strains; isolate NB30
  FIC: 0.02
  Synergy (FBC): indifferent
  Synergy (FIC): yes
Burkholderia strains; [11]
  % FBC Synergy: 10%
  % FIC Synergy: 30%
Stenotrophomonas strains; Stenotrophomonas
  Overall synergy result: Synergy
Stenotrophomonas strains; isolate NB42
  FIC: 0.08
  Synergy (FBC): indifferent
  Synergy (FIC): yes
Stenotrophomonas strains; isolate NB43
  FBC: 0.15
  FIC: 0.08
  Synergy (FBC): yes
  Synergy (FIC): yes
Stenotrophomonas strains; isolate NB44
  FBC: 0.57
  Synergy (FBC): indifferent
  Synergy (FIC): indifferent
Stenotrophomonas strains; isolate NB45
  FBC: 0.45
  FIC: 0.04
  Synergy (FBC): yes
  Synergy (FIC): yes
Stenotrophomonas strains; isolate Steno 1
  Synergy (FBC): yes and indifferent
  Synergy (FIC): yes and indifferent
Stenotrophomonas strains; isolate Steno 2
  Synergy (FBC): yes and indifferent
  Synergy (FIC): yes
Stenotrophomonas strains; isolate Steno 3
  Synergy (FBC): yes and indifferent
  Synergy (FIC): yes and indifferent
Stenotrophomonas strains; isolate Steno 4
  FBC: 1.61
  Synergy (FBC): indifferent
  Synergy (FIC): yes and indifferent
Stenotrophomonas strains; isolate Steno 6
  Synergy (FBC): yes and indifferent
  Synergy (FIC): yes and indifferent
Stenotrophomonas strains; isolate Steno 8
  Synergy (FBC): yes and indifferent
  Synergy (FIC): yes and indifferent
Stenotrophomonas strains; [12]
  % FBC Synergy: 70%
  % FIC Synergy: 90%
Pseudomonas aeruginosa [3]; P. aeruginosa
  MBC 90: 8 µg/mL
  MIC 90: 2 µg/mL
Pseudomonas aeruginosa [3]; Pseudomonas
  MBC 50: 4 µg/mL
  MBC 90: 8 µg/mL
  MIC 50: 2 µg/mL
  MIC 90: 2 µg/mL
Acinetobacter baumannii [9]; Acinetobacter baumannii (n = 5), nanoemulsions in the presence of 5 mM EDTA, in µg/mL
  MIC Range: <=0.5-2
Acinetobacter baumannii [4]; 10 CF Acinetobacter isolates
  MBC 50: 4 µg/mL
  MBC 90: >16 µg/mL
  MIC 50: 1 µg/mL
  MIC 90: 1 µg/mL
Acinetobacter baumannii [4]; A. baumannii
  MBC 90: > 16 µg/mL
  MIC 90: 1 µg/mL
Acinetobacter baumannii [4]; Acinetobacter
  MBC 50: 4 µg/mL
  MBC 90: >16 µg/mL
  MIC 50: 1 µg/mL
  MIC 90: 1 µg/mL
[5]; S. maltophilia
  MBC 90: > 32 µg/mL
  MIC 90: > 32 µg/mL
[5]; Stenotrophomonas
  MBC 50: >32 µg/mL
  MBC 90: >32 µg/mL
  MIC 50: 16 µg/mL
  MIC 90: >32 µg/mL
Acinetobacter strains; Acinetobacter
  Overall synergy result: No Interference
Acinetobacter strains; isolate NB31
  FIC: 0.83
  Synergy (FBC): indifferent
  Synergy (FIC): indifferent
Acinetobacter strains; isolate NB32
  FIC: 0.58
  Synergy (FBC): indifferent
  Synergy (FIC): indifferent
Acinetobacter strains; isolate NB33
  FBC: 2
  FIC: 0.33
  Synergy (FBC): indifferent
  Synergy (FIC): yes
Acinetobacter strains; isolate NB34
  FBC: 1.10
  FIC: 0.46
  Synergy (FBC): indifferent
  Synergy (FIC): yes
Acinetobacter strains; isolate NB35
  FBC: 0.97
  FIC: 0.72
  Synergy (FBC): indifferent
  Synergy (FIC): indifferent
Acinetobacter strains; isolate NB36
  FBC: 2
  FIC: 0.56
  Synergy (FBC): indifferent
  Synergy (FIC): indifferent
Acinetobacter strains; isolate NB37
  FBC: 1.00
  FIC: 0.63
  Synergy (FBC): indifferent
  Synergy (FIC): indifferent
Acinetobacter strains; isolate NB38
  FBC: 0.68
  FIC: 0.77
  Synergy (FBC): indifferent
  Synergy (FIC): indifferent
Acinetobacter strains; isolate NB39
  FIC: 0.72
  Synergy (FBC): indifferent
  Synergy (FIC): indifferent
Acinetobacter strains; isolate NB40
  FBC: 0.91
  FIC: 0.63
  Synergy (FBC): indifferent
  Synergy (FIC): indifferent
Acinetobacter strains; [13]
  % FBC Synergy: 0%
  % FIC Synergy: 20%
[10]; Stenotrophomonas maltophilia (n = 5), nanoemulsions in the presence of 5 mM EDTA, in µg/mL
  MIC Range: <=0.5-1
Burkholderia cenocepacia; B. cenocepacia
  MBC 90: > 32 µg/mL
  MIC 90: > 32 µg/mL
Burkholderia cenocepacia; Burkholderia
  MBC 50: >32 µg/mL
  MBC 90: >32 µg/mL
  MIC 50: >32 µg/mL
  MIC 90: >32 µg/mL
Burkholderia cenocepacia; CF Burkholderia isolate NB26
  MIC: >32 µg/mL

## O=C(O)CN(CCN(CC(=O)O)CC(=O)O)CC(=O)O [EDTA, ethylenediaminetetraacetic acid]
Acinetobacter baumannii [9]; A. baumannii (n = 5)
  number of strains inhibited by EDTA alone: 3
[7]; EDTA alone
  EDTA concentration inhibiting growth of H. influenzae: ≥ 2 mM
[10]; S. maltophilia (n = 5)
  number of strains inhibited by EDTA alone: 5
